{"source": "patent US20260365618A1", "about": "(priority 2022, published 2026)", "key": {"[1]": {"tested_on": "F. tularensis subsp. novicida", "format": "cell-based, Francisella tularensis subsp. novicida"}, "[2]": {"tested_on": "F. tularensis subsp. tularensis", "test": "microbe, parasite or virus in culture", "format": "cell-based, Francisella tularensis subsp. tularensis"}, "F. tularensis, total": {"tested_on": "F. tularensis, total", "format": "cell-based, Francisella tularensis"}, "[3]": {"tested_on": "F. tularensis subsp. tularensis strain SchuS4", "set-up": "species or system mice", "settings": "mouse"}, "[4]": {"tested_on": "F. tularensis subsp. tularensis strain SchuS4", "format": "in vivo, mice"}, "[5]": {"tested_on": "F. tularensis subsp. holarctica", "test": "microbe, parasite or virus in culture", "format": "cell-based, Francisella tularensis subsp. holarctica"}}, "note": "Several values for one entry are separate records, joined by “and”; a condition that tells them apart may be missing. Equal entries are not always repeated. Entries after “also recorded” stand apart in the source; their conditions may differ. Where two headings read alike, the source gives them in different places.", "data": [{"smiles": "CC[C@H]1OC(=O)[C@H](C)[C@@H](O[C@H]2C[C@@](C)(OC)[C@@H](O)[C@H](C)O2)[C@H](C)[C@@H](O[C@@H]2O[C@H](C)C[C@H](N(C)C)[C@H]2O)[C@](C)(O)C[C@@H](C)C(=O)[C@H](C)[C@@H](O)[C@]1(C)O", "note": "[Erythromycin]", "values": [{"measurement": "activity (in words)", "setting": "[1]; subsp. novicida", "result": "inactive"}, {"measurement": "MIC", "setting": "[1]; subsp. novicida, N=1, CAMHB + 2% Isovitalex, 35 °C, 48 h", "result": "≥8", "unit": "µg/mL"}, {"measurement": "in vitro activity (in words)", "setting": "[2]", "result": "slightly weaker activity"}]}, {"smiles": "C=C[C@]1(C)C[C@@H](OC(=O)CS[C@@H]2CC[C@@H](N)C[C@H]2O)[C@]2(C)[C@H](C)CC[C@]3(CCC(=O)[C@H]32)[C@@H](C)[C@@H]1O", "note": "[Lefamulin, 14-O-{[(1R, 2R, 4R)-4-amino-2-hydroxy-cyclohexylsulfanyl]-acetyl}-mutilin]", "values": [{"measurement": "activity (in words)", "setting": "[1]", "result": "Potent activity"}, {"measurement": "antimicrobial activity against F. tularensis (in words)", "setting": "F. tularensis, total", "result": "active in vitro and in vivo; also recorded: potent inhibition"}, {"measurement": "in vitro activity (in words)", "setting": "F. tularensis, total", "result": "potent in vitro activity"}, {"measurement": "efficacy in the murine in vivo model (in words)", "setting": "[3]", "result": "comparable efficacy"}, {"measurement": "animals surviving until day 45", "setting": "[3]; in vivo", "result": "one"}, {"measurement": "effect of oral treatment on survival (in words)", "setting": "[3]; in vivo", "result": "effective in prolonging the survival"}, {"measurement": "mortality 5 days after the last treatment", "setting": "[3]; in vivo", "result": "~100", "unit": "%"}, {"measurement": "survival by the end of treatment (Day 15)", "setting": "[3]; in vivo", "result": "100% and 90%"}, {"measurement": "bacterial load in spleen", "setting": "[4]; animals surviving until day 45 (ciprofloxacin: average of two; Lefamulin: one), spleen", "result": "7.7×10^6 CFU/g"}, {"measurement": "bacterial load in lung", "setting": "[4]; one remaining Lefamulin-treated animal, day 45, lung", "result": "1.3×10^6 CFU/g"}, {"measurement": "activity / MIC values compared with subsp. tularensis (in words)", "setting": "[5]", "result": "slightly higher"}, {"measurement": "in vitro activity (in words)", "setting": "[2]", "result": "surprisingly potent activity"}, {"measurement": "MIC", "setting": "[2]; Francisella tularensis, read-out: concentration at which all subsp. tularensis isolates were inhibited", "result": "≤ 4", "unit": "µg/mL"}]}]}
